The record followed here is PubChem BioAssay AID330 (DTP/NCI, 2004).

The test system of the assay is P388 leukemia ip, CD2F1 mice, survival T/C. Nature of the assay: NCI In Vivo Anticancer Drug Screen. Data for tumor model P388 Leukemia (intraperitoneal) in CD2F1 (CDF1) mice. The conditions noted are these: endpoint: median survival time, higher = longer survival. The method, boiled down:
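Mice carrying the transplanted tumor received test compound or vehicle. Survival was recorded in each group, and the value is the treated-group measurement divided by that of the vehicle-treated control group.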

[1] abbreviates: dose: 50.0 mg/kg/injection, schedule: Q01DX005 (ip), vehicle: Klucel (hydroxypropylcellulose) (HPC).
The mark [2] stands for this setting: dose: 6.25 mg/kg/injection, schedule: Q01DX009 (ip), vehicle: saline.
[3] abbreviates: dose: 12.5 mg/kg/injection, schedule: Q01DX009 (ip), vehicle: saline.
[4] abbreviates: dose: 25.0 mg/kg/injection, schedule: Q01DX009 (ip), vehicle: saline.
Where [5] appears, read: dose: 100.0 mg/kg/injection, schedule: Q01DX005 (ip), vehicle: saline with Tween-80.
The mark [6] stands for this setting: dose: 200.0 mg/kg/injection, schedule: Q01DX005 (ip), vehicle: saline with Tween-80.
The mark [7] stands for this setting: dose: 60.0 mg/kg/injection, schedule: Q01DX005 (ip), vehicle: saline with Tween-80.
Where [8] appears, read: dose: 120.0 mg/kg/injection, schedule: Q01DX005 (ip), vehicle: saline with Tween-80.
Where [9] appears, read: dose: 240.0 mg/kg/injection, schedule: Q01DX005 (ip), vehicle: saline with Tween-80.
[10] abbreviates: dose: 100.0 mg/kg/injection, schedule: Q01DX005 (ip), vehicle: Klucel (hydroxypropylcellulose) (HPC).
The mark [11] stands for this setting: dose: 200.0 mg/kg/injection, schedule: Q01DX005 (ip), vehicle: Klucel (hydroxypropylcellulose) (HPC).

Values joined by “and” are separate entries in the source; they are usually repeats but may differ in a detail not shown here. Identical values can stand only once. Toxic doses and inconclusive results are not listed.

Turning to `CCn1c(-c2ccccc2)nc(=S)c(C(=O)c2ccccc2)c1SC`, the T/C runs as follows: (dose: 100.0 mg/kg/injection, schedule: Q04DX003 (ip), vehicle: Klucel (hydroxypropylcellulose) (HPC)) 98 % of control; (dose: 200.0 mg/kg/injection, schedule: Q04DX003 (ip), vehicle: Klucel (hydroxypropylcellulose) (HPC)) 100 % of control; (dose: 400.0 mg/kg/injection, schedule: Q04DX003 (ip), vehicle: Klucel (hydroxypropylcellulose) (HPC)) 100 % of control.
As for `S=c1[nH]ccs1`, the T/C was 99 % of control (dose: 12.5 mg/kg/injection, schedule: Q01DX009 (ip), vehicle: water); 99 % of control (dose: 25.0 mg/kg/injection, schedule: Q01DX009 (ip), vehicle: water); 95 % of control (dose: 50.0 mg/kg/injection, schedule: Q01DX009 (ip), vehicle: water).
For `CCN(CC)C(=O)c1ccc(C)c2c1Nc1c(c(C)c3oc(=O)c(C)nc3c1C(=O)N(CC)CC)O2`, the T/C reads like this: (dose: 7.5 mg/kg/injection, schedule: Q01DX005 (ip), vehicle: Klucel (hydroxypropylcellulose) (HPC)) 97 % of control; (dose: 15.0 mg/kg/injection, schedule: Q01DX005 (ip), vehicle: Klucel (hydroxypropylcellulose) (HPC)) 90 % of control; (dose: 120.0 mg/kg/injection, schedule: Q01DX005 (ip), vehicle: Klucel (hydroxypropylcellulose) (HPC)) 88 % of control; (dose: 240.0 mg/kg/injection, schedule: Q01DX005 (ip), vehicle: Klucel (hydroxypropylcellulose) (HPC)) 92 % of control.
For `COc1cccc2c1C(=O)c1c(O)c3c(c(O)c1C2=O)C[C@@](O)(C(C)=O)C[C@@H]3OC1CC(N(C)C)C(O)C(C)O1` (stereo not given in full), the T/C runs as follows: (dose: 0.25 mg/kg/injection, schedule: Q01DX009 (ip), vehicle: water) 115 % of control; (dose: 0.5 mg/kg/injection, schedule: Q01DX009 (ip), vehicle: water) 158 % of control; (dose: 0.63 mg/kg/injection, schedule: Q04DX003 (ip), vehicle: water) 115 % of control; (dose: 1.0 mg/kg/injection, schedule: Q01DX009 (ip), vehicle: water) 171 % of control and 190 % of control; (dose: 1.25 mg/kg/injection, schedule: Q01DX001 (ip), vehicle: water) 116 % of control; (dose: 1.25 mg/kg/injection, schedule: Q04DX003 (ip), vehicle: water) 100 % of control. The T/C by setting is: (dose: 2.0 mg/kg/injection, schedule: Q01DX009 (ip), vehicle: water) 200 % of control and 228 % of control; (dose: 2.16 mg/kg/injection, schedule: Q04DX003 (ip), vehicle: water) 151 % of control; (dose: 2.5 mg/kg/injection, schedule: Q04DX003 (ip), vehicle: water) 109 % of control; (dose: 4.0 mg/kg/injection, schedule: Q01DX009 (ip), vehicle: water) 98 % of control and 88 % of control; (dose: 5.0 mg/kg/injection, schedule: Q04DX003 (ip), vehicle: water) 104 % of control and 121 % of control; (dose: 6.0 mg/kg/injection, schedule: Q04DX003 (ip), vehicle: water) 170 % of control. Besides, the T/C is, setting by setting: (dose: 10.0 mg/kg/injection, schedule: Q01DX001 (ip), vehicle: water) 154 % of control; (dose: 10.0 mg/kg/injection, schedule: Q04DX003 (ip), vehicle: water) 199 % of control; (dose: 16.7 mg/kg/injection, schedule: Q04DX003 (ip), vehicle: water) 93 % of control; (dose: 20.0 mg/kg/injection, schedule: Q01DX001 (ip), vehicle: water) 169 % of control; (dose: 20.0 mg/kg/injection, schedule: Q04DX003 (ip), vehicle: water) 123 % of control; (dose: 40.0 mg/kg/injection, schedule: Q04DX003 (ip), vehicle: water) 114 % of control.
For the molecule `CCOc1cccc(/C=N/NC(=O)C(=O)Nc2cccc(C(F)(F)F)c2)c1O`, the T/C (dose: 12.5 mg/kg/injection, schedule: Q01DX005 (ip), vehicle: Klucel (hydroxypropylcellulose) (HPC)) is 98 % of control; the T/C (dose: 25.0 mg/kg/injection, schedule: Q01DX005 (ip), vehicle: Klucel (hydroxypropylcellulose) (HPC)) was 95 % of control; the T/C under setting [1] was 89 % of control and 90 % of control.
On to `O=[N+]([O-])c1ccc(/C=C/[n+]2ccc3ccccc3c2)o1`, for which the T/C was 107 % of control (dose: 1.56 mg/kg/injection, schedule: Q01DX009 (ip), vehicle: saline); 103 % of control (dose: 3.12 mg/kg/injection, schedule: Q01DX009 (ip), vehicle: saline); 108 % of control and 91 % of control under setting [2].
Consider `c1ccc2c(CC3NCCN3)cccc2c1`, for which the T/C is, setting by setting: under setting [2], 100 % of control; under setting [3], 100 % of control; under setting [4], 92 % of control.
As to `CN(C)c1ccc(C(=C2C=CC(=[N+](C)C)C=C2)c2cc(S(=O)(=O)O)cc3cc(S(=O)(=O)O)ccc23)cc1`, the T/C reads like this: (dose: 50.0 mg/kg/injection, schedule: Q01DX005 (ip), vehicle: saline with Tween-80) 103 % of control; under setting [5], 107 % of control; under setting [6], 100 % of control.
Regarding `Cn1cc(Cc2c[nH]c3ccccc3c2=O)c2ccccc21`, the T/C was 107 % of control under setting [7], 99 % of control under setting [8] and 97 % of control under setting [9].
For `O=C1NC(=O)C2(CCCC2=Nc2ccc(Br)cc2)C2C=CN(Cc3ccccc3)C=C12` (stereo not given), the T/C reads like this: (dose: 25.0 mg/kg/injection, schedule: Q04DX003 (ip), vehicle: saline) 107 % of control; (dose: 50.0 mg/kg/injection, schedule: Q04DX003 (ip), vehicle: saline) 107 % of control; (dose: 100.0 mg/kg/injection, schedule: Q04DX003 (ip), vehicle: saline) 105 % of control and 110 % of control; (dose: 200.0 mg/kg/injection, schedule: Q04DX003 (ip), vehicle: saline) 107 % of control.
For the molecule `CC(C(C(=O)N1CCCCC1)N1CCCCC1)N1CCCCC1` (stereo not given), the T/C is 99 % of control (dose: 100.0 mg/kg/injection, schedule: Q01DX009 (ip), vehicle: saline); 87 % of control (dose: 200.0 mg/kg/injection, schedule: Q01DX009 (ip), vehicle: saline); 97 % of control (dose: 400.0 mg/kg/injection, schedule: Q01DX009 (ip), vehicle: saline).
Regarding `O=C(O)[C@H](Cc1ccccc1)N1C(=O)c2ccccc2C1=O`, the T/C runs as follows: (dose: 50.0 mg/kg/injection, schedule: Q01DX005 (ip), vehicle: DMSO) 105 % of control; under setting [1], 109 % of control; (dose: 100.0 mg/kg/injection, schedule: Q01DX005 (ip), vehicle: DMSO) 100 % of control; under setting [10], 105 % of control; under setting [5], 99 % of control; (dose: 125.0 mg/kg/injection, schedule: Q01DX001 (ip), vehicle: saline with Tween-80) 102 % of control. Also, the T/C was 100 % of control (dose: 200.0 mg/kg/injection, schedule: Q01DX005 (ip), vehicle: DMSO); 101 % of control under setting [11]; 107 % of control under setting [6]; 95 % of control (dose: 250.0 mg/kg/injection, schedule: Q01DX001 (ip), vehicle: saline with Tween-80); 100 % of control (dose: 400.0 mg/kg/injection, schedule: Q01DX005 (ip), vehicle: DMSO); 105 % of control (dose: 400.0 mg/kg/injection, schedule: Q01DX005 (ip), vehicle: saline with Tween-80). Also, the T/C reads like this: (dose: 500.0 mg/kg/injection, schedule: Q01DX001 (ip), vehicle: saline with Tween-80) 100 % of control and 105 % of control; (dose: 800.0 mg/kg/injection, schedule: Q01DX005 (ip), vehicle: DMSO) 107 % of control.
For `CCC(SC)C(=O)N(C)c1ccccc1` (stereo not given), the T/C was 104 % of control under setting [2]; 107 % of control under setting [3]; 90 % of control (dose: 25.0 mg/kg/injection, schedule: Q01DX009 (ip), vehicle: saline with Tween-80); 114 % of control under setting [4]; 109 % of control (dose: 100.0 mg/kg/injection, schedule: Q01DX009 (ip), vehicle: saline with Tween-80).
With `O=C(O)c1ccc(S(=O)(=O)F)c(Cl)c1`, the T/C runs as follows: under setting [7], 120 % of control; under setting [8], 119 % of control; under setting [9], 121 % of control.
Consider `CC1CCN(C(=O)c2nc3ccccc3[nH]2)CC1`, for which the T/C by setting is: under setting [1], 102 % of control; under setting [10], 103 % of control; under setting [11], 107 % of control.
Turning to `Cc1ccc(C=C(C#N)C#N)o1`, the T/C runs as follows: under setting [7], 102 % of control; under setting [8], 105 % of control.
With `O=c1oc(-c2ccccc2)nc2c1CCS2`, the T/C is 93 % of control under setting [1], 97 % of control under setting [10] and 90 % of control under setting [11].
